Values after ≈ are worked out from the molar mass of the structure shown. Each block holds one compound with its values, some of them ahead of it.
Experiments:
physchem [1] = settings: water, thermodynamic from solid
Description: First, various surfactants were screened for their ability to improve aripiprazole solubility in FaSSGF and water. Equilibrium solubility of aripiprazole in the presence of surfactants was estimated in water and FaSSGF by the procedure described in Example 50.

physchem [2] = settings: thermodynamic from solid
[3] = Aripiprazole stability versus processing temperature
[4] = PCL/SGF partition coefficient; type: physicochemical; settings: 5:1 PCL diol (MW 530):ethyl acetate versus FaSSGF
Method: Partitioning of active pharmaceutical ingredient (API) between the structural polymer, polycaprolactone (PCL), and fasted state simulated gastric fluid (FaSSGF) is of interest for predicting API release rate from PCL-based formulations. To measure the PCL-SGF partition coefficient of an API, a concentrated stock solution of API was added to a mixture of 1 mL FaSSGF and 1 mL of 5:1 PCL diol (MW 530):ethyl acetate. The sample was vortexed and centrifuged at 10000 rpm for 5 minutes. The SGF phase was analyzed by HPLC to measure drug concentration. The PCL phase was diluted in methanol prior to quantification on HPLC.

[5] = method not given; cited from earlier work
[6] = Time dependent thermal processing stability of aripiprazole at 100 °C; settings: for Visual Observation / Impurity % 0.86 RRT: extruded at 100 °C
[7] = Rosuvastatin forced degradation in solution and in polycaprolactone formulation; type: physicochemical
Method: SOLUTION CONDITIONS: For acid degradation studies, rosuvastatin was dissolved to 1 mg/mL in 0.1M HCl and heated for the specified time and temperature. For alkaline degradation, rosuvastatin was dissolved to 1 mg/mL in 0.1M NaOH and heated to 80° C. for 1 h. For oxidative degradation, rosuvastatin was dissolved to 1 mg/mL in 30% hydrogen peroxide and heated to 80° C. for 30 min. For stability over time, rosuvastatin was dissolved to 1 mg/mL in water at room temperature for 5 days. For thermal degradation studies in solution, rosuvastatin was dissolved to 1 mg/mL in dimethylsulfoxide and heated to the specified temperature for 2 h. In each case, samples of the solution were diluted in methanol and analyzed by LCMS to determine the ratio of intact drug to degraded drug.
POLYMER CONDITIONS: For thermal degradation studies in formulation, rosuvastatin was blended with PCL at a ratio of 25:75 drug:PCL and the blend was heated to the specified temperature for 2 h. The drug-polymer blend was then dissolved in dichloromethane and this solution was added to excess methanol to precipitate PCL. Samples of the methanol solution were then analyzed by LCMS to determine the ratio of intact drug to degraded drug.

[8] = as above; type: physicochemical; settings: Heat: 1 mg/mL drug in DMSO, 1 h
[9] = oral, once daily; cited from earlier work
[10] = extruded at 90 °C, same formulation
[11] = extruded at 100 °C, same formulation
[12] = extruded at 120 °C, same formulation
[13] = extruded at 140 °C, same formulation
[14] = extruded at 160 °C, same formulation
[15] = extruded at 180 °C, same formulation

LogP (PCL/SGF) [4]: −0.56
PCL/SGF Partition Coefficient [4]: 0.28
Compound: CC12CC3CC(C)(C1)CC(N)(C3)C2 [Memantine]

% Intact drug ([7]; Acid: 0.1N HCl, 37 C., 2 d): 66%
% Intact drug ([7]; Acid: 0.1N HCl, 37 C., overnight, 1 mg/mL): 87%
% Intact drug ([7]; Acid: 0.1N HCl, 50 C., 4 h): 93%
% Intact drug ([7]; Acid: 0.1N HCl, 50 C., overnight): 58%
% Intact drug ([7]; Acid: 0.1N HCl, 80 C., 1 h): ~100%
% Intact drug ([7]; Base: 0.1M NaOH, 80 C., 1 h): ~100%
% Intact drug ([7]; Heat: 1 mg/mL drug in DMSO, 100 C., 2 h): 86%
% Intact drug ([7]; Heat: 1 mg/mL drug in DMSO, 120 C., 2 h): 77%
% Intact drug ([7]; Oxidation: 30% H2O2, 80 C., 30 min): ~100%
% Intact drug ([7]; Polymer-blended: 25% drug in polycaprolactone, 100 C., 2 h): >95%
% Intact drug ([7]; Polymer-blended: 25% drug in polycaprolactone, 120 C., 2 h): >95%
% Intact drug ([7]; Time: 1 mg/mL drug in water, room temperature, 5 days): 62%
% Intact drug ([8]; 100 C.): 86%
% Intact drug ([8]; 120 C.): >95%
Compound: CC(C)c1nc(N(C)S(C)(=O)=O)nc(-c2ccc(F)cc2)c1/C=C/[C@@H](O)C[C@@H](O)CC(=O)[O-].CC(C)c1nc(N(C)S(C)(=O)=O)nc(-c2ccc(F)cc2)c1/C=C/[C@@H](O)C[C@@H](O)CC(=O)[O-].[Ca+2] [Rosuvastatin calcium]

acid stability in PCL formulation versus in solution ([7]; FIG. 20): protects the drug from acid degradation
Compound: CC(C)c1nc(N(C)S(C)(=O)=O)nc(-c2ccc(F)cc2)c1/C=C/[C@@H](O)C[C@@H](O)CC(=O)O [Rosuvastatin]
thermal stability in PCL formulation versus in solution ([7]; FIG. 21): protects the drug from degradation at elevated temperatures
elimination half-life [9]: approximately 19 hours

Continued, compound first:

Compound: O=C1CCc2ccc(OCCCCN3CCN(c4cccc(Cl)c4Cl)CC3)cc2N1 [Aripiprazole]
solubility (physchem [1]): ~0.456 µg/mL (≈ 1.02 µM)
solubility (physchem [2]; pH 1.06, simulated gastric fluid): 500 µg/mL (≈ 1120 µM)
solubility (physchem [2]; pH 3, aqueous buffer): 120 µg/mL (≈ 268 µM)
solubility (physchem [2]; pH 4.65, aqueous buffer): 110 µg/mL (≈ 245 µM)
Visual Observation ([3]; extruded at 90 °C, 10 min batch mixing 75 rpm, 20% Aripiprazole/10% Kolliphor P407/10% Eudragit EPO/80 K PCL formulation): White
% Impurity Total [3, 10]: <0.05%
% Impurity at RRT 0.64 [3, 10]: <0.05%
% Impurity Total [3, 11]: <0.05%
% Impurity at RRT 0.64 [3, 11]: <0.05%
Visual Observation [3, 11]: White
% Impurity Total [3, 12]: <0.05%
% Impurity at RRT 0.64 [3, 12]: <0.05%
Visual Observation [3, 12]: White
% Impurity Total [3, 13]: 0.14%
% Impurity at RRT 0.64 [3, 13]: <0.05%
% Impurity at RRT 0.86 [3, 13]: 0.14%
Visual Observation [3, 13]: Slight pink
% Impurity Total [3, 14]: 0.21%
% Impurity at RRT 0.22 [3, 14]: 0.08%
% Impurity at RRT 0.42 [3, 14]: 0.08%
% Impurity at RRT 0.64 [3, 14]: 0.05%
Visual Observation [3, 14]: Brown
% Impurity Total [3, 15]: 0.60%
% Impurity at RRT 0.22 [3, 15]: 0.28%
% Impurity at RRT 0.42 [3, 15]: 0.12%
% Impurity at RRT 0.64 [3, 15]: 0.07%
% Impurity at RRT 0.71 [3, 15]: <0.05%
% Impurity at RRT 0.81 [3, 15]: 0.05%
% Impurity at RRT 0.93 [3, 15]: 0.08%
Visual Observation [3, 15]: Brown
LogP (PCL/SGF) [4]: 1.67
PCL/SGF Partition Coefficient [4]: 49
LogP (Octanol/water) [5]: 5.59
degradation at 100 °C at all the timepoints ([6]; 5 to 30 minutes extrusion, same formulation): no significant degradation
Visual Observation ([6]; 5 min, 75 rpm, 20% aripiprazole/10% Kolliphor P407/10% Eudragit EPO/80 K PCL formulation): White colored extrudate
Impurity % 0.86 RRT ([6]; 5 min, same formulation): 0.08%
Impurity % 0.86 RRT ([6]; 10 min, same formulation): 0.08%
Visual Observation ([6]; 10 min, same formulation): White colored extrudate
Impurity % 0.86 RRT ([6]; 15 min, same formulation): 0.08%
Visual Observation ([6]; 15 min, same formulation): White colored extrudate
Impurity % 0.86 RRT ([6]; 20 min, same formulation): 0.08%
Visual Observation ([6]; 20 min, same formulation): White colored extrudate
Impurity % 0.86 RRT ([6]; 30 min, same formulation): 0.08%
Visual Observation ([6]; 30 min, same formulation): White colored extrudate

Compound: Cc1nc2n(c(=O)c1CCN1CCC(c3noc4cc(F)ccc34)CC1)CCCC2 [Risperidone]
PCL/SGF Partition Coefficient [4]: 0.03

Compound: Doxycycline Hyclate
LogP (PCL/SGF) [4]: 0.27
PCL/SGF Partition Coefficient [4]: 1.88
LogP (Octanol/water) [5]: −1.9

Compound: Ivermectin
LogP (PCL/SGF) [4]: 2.60
PCL/SGF Partition Coefficient [4]: 398
LogP (Octanol/water) [5]: 4.1

From US11576859B2, “Gastric residence systems for sustained release of therapeutic agents and methods of use thereof” (Lyndra Therapeutics, Inc., priority 2015, dated 2023)
